# Laboratory results taken from patent publication US10208081B2, “Bile acid derivatives as FXR/TGR5 agonists and methods of use thereof” (Enanta Pharmaceuticals, Inc., priority 2014, dated 2019).
# pEC50: −log10 of the molar value.
# Target: human FXR (NR1H4) (Homo sapiens (Human), UniProt Q96RI1)
# Assay: Human FXR (NR1H4) Assay (Gal4 promoter driven luciferase reporter, Indigo Bioscience kit IB00601)
# Assay type: cell-based
# Conditions: for Efficacy (%): efficacy normalized to CDCA set as 100%; for pEC50: potency ranges
# Text: Assays Human FXR (NR1H4) Assay
# Determination of a ligand mediated Gal4 promoter driven transactivation quantify ligand binding mediated activation of FXR. FXR Reporter Assay kit purchased from Indigo Bioscience (Catalogue number: IB00601) to determine the potency and efficacy of compound developed by Enanta that can induce FXR activation. The principle application of this reporter assay system is to quantify functional activity of human FXR. The assay utilizes non-human mammalian cells, CHO (Chinese hamster ovary) cells engineered to express human NR1H4 protein (referred to as FXR). Reporter cells also incorporate the cDNA encoding beetle luciferase which catalyzes the substrates and yields photon emission. Luminescence intensity of the reaction is quantified using a plate-reading luminometer, Envision. Reporter Cells include the luciferase reporter gene functionally linked to an FXR responsive promoter. Thus, quantifying changes in luciferase expression in the treated reporter cells provides a sensitive surrogate measure of the changes in FXR activity. […] The assay is according to the manufacturer's instructions. In brief, the assay was performed in white, 96 well plates using final volume of 100 ul containing cells with different doses of compounds. Retrieve Reporter Cells from −80° C. storage. Perform a rapid thaw of the frozen cells by transferring a 10 ml volume of 37° C. cell recovery medium into the tube of frozen cells. Recap the tube of Reporter Cells and immediately place it in a 37° C. water bath for 5-10 minutes. Retrieve the tube of Reporter Cell Suspension from the water bath. Sanitize the outside surface of the tube with a 70% alcohol swab, and then transfer it into the cell culture hood. Dispense 90 μl of cell suspension into each well of the 96-well Assay Plate. Transfer the plate into 37° C. incubator, allowing the cells adherent to the bottom of the well. Dilute compounds in Dilution Plate (DP), and administrate to cells at Assay Plate (AP). DMSO content of the samples was kept at 0.2%. Cells were incubated for additional 22 hours before luciferase activities were measured. Thirty minutes before intending to quantify FXR activity, remove Detection Substrate and Detection Buffer from the refrigerator and place them in a low-light area so that they may equilibrate to room temperature. Remove the plate's lid and discard all media contents by ejecting it into an appropriate waste container. Gently tap the inverted plate onto a clean absorbent paper towel to remove residual droplets. Cells will remain tightly adhered to well bottoms. Add 100 μl of luciferase detection reagent to each well of the assay plate. Allow the assay plate to rest at room temperature for at least 5 minutes following the addition of LDR. Set the instrument (Envision) to perform a single 5 second “plate shake” prior to reading the first assay well. Read time may be 0.5 second (500 mSec) per well.
# human FXR (NR1H4), sequence (Q96RI1 whole entry, the tested form may be a part): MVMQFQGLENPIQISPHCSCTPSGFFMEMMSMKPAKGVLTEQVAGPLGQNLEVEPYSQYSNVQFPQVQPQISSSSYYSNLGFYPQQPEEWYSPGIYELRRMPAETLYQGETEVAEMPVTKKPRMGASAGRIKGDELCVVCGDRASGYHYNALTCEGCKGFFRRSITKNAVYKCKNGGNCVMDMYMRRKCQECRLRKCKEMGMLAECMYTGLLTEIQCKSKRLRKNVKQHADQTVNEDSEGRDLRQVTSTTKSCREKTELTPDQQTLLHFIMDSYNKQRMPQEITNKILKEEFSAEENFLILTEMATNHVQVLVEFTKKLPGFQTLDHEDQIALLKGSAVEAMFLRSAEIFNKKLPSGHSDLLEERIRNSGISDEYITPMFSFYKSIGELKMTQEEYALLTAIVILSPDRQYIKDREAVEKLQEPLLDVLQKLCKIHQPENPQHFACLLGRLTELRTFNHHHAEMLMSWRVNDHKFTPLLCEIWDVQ
Structure (SMILES),Efficacy (%),pEC50
CC[C@H]1[C@@H](O)[C@@H]2[C@H](CC[C@]3(C)[C@@H]([C@H](C)CCNC(=O)NS(=O)(=O)C4(C)CC4)CC[C@@H]23)[C@@]2(C)CC[C@@H](O)C[C@@H]12 [Example 46],315,> 7.00
CC[C@H]1[C@@H](O)[C@@H]2[C@H](CC[C@]3(C)[C@@H]([C@H](C)CCNC(=O)NS(=O)(=O)N4CCCCCC4)CC[C@@H]23)[C@@]2(C)CC[C@@H](O)C[C@@H]12 [Example 47],361,> 7.00
CC[C@H]1[C@@H](O)[C@@H]2[C@H](CC[C@]3(C)[C@@H]([C@H](C)CCNC(=O)NS(=O)(=O)N4CCCC4)CC[C@@H]23)[C@@]2(C)CC[C@@H](O)C[C@@H]12 [Example 48],420,> 7.00
CC[C@H]1[C@@H](O)[C@@H]2[C@H](CC[C@]3(C)[C@@H]([C@H](C)CCNC(=O)NS(=O)(=O)c4ccncc4)CC[C@@H]23)[C@@]2(C)CC[C@@H](O)C[C@@H]12 [Example 49],236,5.00 to 6.00
CC[C@H]1[C@@H](O)[C@@H]2[C@H](CC[C@]3(C)[C@@H]([C@H](C)CCNC(=O)NS(=O)(=O)c4cccc(OC(F)(F)F)c4)CC[C@@H]23)[C@@]2(C)CC[C@@H](O)C[C@@H]12 [Example 50],309,> 7.00
CC[C@H]1[C@@H](O)[C@@H]2[C@H](CC[C@]3(C)[C@@H]([C@H](C)CCNC(=O)NS(=O)(=O)c4cccc(F)c4)CC[C@@H]23)[C@@]2(C)CC[C@@H](O)C[C@@H]12 [Example 51],319,> 7.00
CC[C@H]1[C@@H](O)[C@@H]2[C@H](CC[C@]3(C)[C@@H]([C@H](C)CCNC(=O)NS(=O)(=O)N(C(C)C)C(C)C)CC[C@@H]23)[C@@]2(C)CC[C@@H](O)C[C@@H]12 [Example 52],281,6.00 to 7.00
CC[C@H]1[C@@H](O)[C@@H]2[C@H](CC[C@]3(C)[C@@H]([C@H](C)CCNC(=O)NS(=O)(=O)c4cccc(C(C)(C)C)c4)CC[C@@H]23)[C@@]2(C)CC[C@@H](O)C[C@@H]12 [Example 53],263,> 7.00
CC[C@H]1[C@@H](O)[C@@H]2[C@H](CC[C@]3(C)[C@@H]([C@H](C)CCNC(=O)NS(=O)(=O)c4ccc(-c5ccccc5)cc4)CC[C@@H]23)[C@@]2(C)CC[C@@H](O)C[C@@H]12 [Example 54],273,> 7.00
CC[C@H]1[C@@H](O)[C@@H]2[C@H](CC[C@]3(C)[C@@H]([C@H](C)CCNC(=O)NS(=O)(=O)c4ccc5c(c4)CCC5)CC[C@@H]23)[C@@]2(C)CC[C@@H](O)C[C@@H]12 [Example 55],271,> 7.00
CC[C@H]1[C@@H](O)[C@@H]2[C@H](CC[C@]3(C)[C@@H]([C@H](C)CCNC(=O)N(C)S(=O)(=O)c4ccccc4)CC[C@@H]23)[C@@]2(C)CC[C@@H](O)C[C@@H]12 [Example 56],295,6.00 to 7.00
CC[C@H]1[C@@H](O)[C@@H]2[C@H](CC[C@]3(C)[C@@H]([C@H](C)CCNC(=O)NS(=O)(=O)c4ccc5c(c4)CCCC5)CC[C@@H]23)[C@@]2(C)CC[C@@H](O)C[C@@H]12 [Example 57],297,> 7.00
CC[C@H]1[C@@H](O)[C@@H]2[C@H](CC[C@]3(C)[C@@H]([C@H](C)CCNC(=O)NS(=O)(=O)c4ccc5c(c4)OCCO5)CC[C@@H]23)[C@@]2(C)CC[C@@H](O)C[C@@H]12 [Example 58],307,> 7.00
CC[C@H]1[C@@H](O)[C@@H]2[C@H](CC[C@]3(C)[C@@H]([C@H](C)CCNC(=O)NS(=O)(=O)c4ccc(C5CCCCC5)cc4)CC[C@@H]23)[C@@]2(C)CC[C@@H](O)C[C@@H]12 [Example 59],344,6.00 to 7.00
CC[C@H]1[C@@H](O)[C@@H]2[C@H](CC[C@]3(C)[C@@H]([C@H](C)CCNC(=O)NS(=O)(=O)C[C@]45CCC(CC4=O)C5(C)C)CC[C@@H]23)[C@@]2(C)CC[C@@H](O)C[C@@H]12 [Example 60],346,> 7.00
CC[C@H]1[C@@H](O)[C@@H]2[C@H](CC[C@]3(C)[C@@H]([C@H](C)CCNC(=O)NS(=O)(=O)C[C@@]45CCC(CC4=O)C5(C)C)CC[C@@H]23)[C@@]2(C)CC[C@@H](O)C[C@@H]12 [Example 61],403,> 7.00
CC[C@H]1[C@@H](O)[C@@H]2[C@H](CC[C@]3(C)[C@@H]([C@H](C)CCNC(=O)NS(=O)(=O)c4ccc5c(c4)CCN5C(C)=O)CC[C@@H]23)[C@@]2(C)CC[C@@H](O)C[C@@H]12 [Example 62],476,5.00 to 6.00
CC[C@H]1[C@@H](O)[C@@H]2[C@H](CC[C@]3(C)[C@@H]([C@H](C)CCNC(=O)NS(=O)(=O)Cc4ccccc4)CC[C@@H]23)[C@@]2(C)CC[C@@H](O)C[C@@H]12 [Example 63],452,6.00 to 7.00
CC[C@H]1[C@@H](O)[C@@H]2[C@H](CC[C@]3(C)[C@@H]([C@H](C)CCNC(=O)NS(=O)(=O)c4cnccn4)CC[C@@H]23)[C@@]2(C)CC[C@@H](O)C[C@@H]12 [Example 64],334,5.00 to 6.00
CC[C@H]1[C@@H](O)[C@@H]2[C@H](CC[C@]3(C)[C@@H]([C@H](C)CCNC(=O)NS(=O)(=O)N4CCC(C)(C)CC4)CC[C@@H]23)[C@@]2(C)CC[C@@H](O)C[C@@H]12 [Example 65],498,> 7.00
CC[C@H]1[C@@H](O)[C@@H]2[C@H](CC[C@]3(C)[C@@H]([C@H](C)CCNC(=O)NS(=O)(=O)N4CCC(C(C)(C)C)CC4)CC[C@@H]23)[C@@]2(C)CC[C@@H](O)C[C@@H]12 [Example 67],351,> 7.00
CC[C@H]1[C@@H](O)[C@@H]2[C@H](CC[C@]3(C)[C@@H]([C@H](C)CCNC(=O)NS(=O)(=O)N4CC5CC5C4)CC[C@@H]23)[C@@]2(C)CC[C@@H](O)C[C@@H]12 (stereo partly shown) [Example 68],458,> 7.00
CC[C@H]1[C@@H](O)[C@@H]2[C@H](CC[C@]3(C)[C@@H]([C@H](C)CCNC(=O)NS(=O)(=O)c4ccc(C(C)(C)CO)cc4)CC[C@@H]23)[C@@]2(C)CC[C@@H](O)C[C@@H]12 [Example 69],490,> 7.00
CC[C@H]1[C@@H](O)[C@@H]2[C@H](CC[C@]3(C)[C@@H]([C@H](C)CCNC(=O)NS(=O)(=O)c4ccc(C(C)(C)C(=O)OC)cc4)CC[C@@H]23)[C@@]2(C)CC[C@@H](O)C[C@@H]12 [Example 70],434,> 7.00
CC[C@H]1[C@@H](O)[C@@H]2[C@H](CC[C@]3(C)[C@@H]([C@H](C)CCNC(=O)NS(=O)(=O)c4ccc(-c5csc(C)n5)cc4)CC[C@@H]23)[C@@]2(C)CC[C@@H](O)C[C@@H]12 [Example 71],419,6.00 to 7.00
CC[C@H]1[C@@H](O)[C@@H]2[C@H](CC[C@]3(C)[C@@H]([C@H](C)CCNC(=O)NS(=O)(=O)c4ccc(-c5ccno5)cc4C)CC[C@@H]23)[C@@]2(C)CC[C@@H](O)C[C@@H]12 [Example 72],384,6.00 to 7.00
CC[C@H]1[C@@H](O)[C@@H]2[C@H](CC[C@]3(C)[C@@H]([C@H](C)CCNC(=O)NS(=O)(=O)c4ccc(-c5ccno5)cc4OC)CC[C@@H]23)[C@@]2(C)CC[C@@H](O)C[C@@H]12 [Example 73],444,6.00 to 7.00
CC[C@H]1[C@@H](O)[C@@H]2[C@H](CC[C@]3(C)[C@@H]([C@H](C)CCNC(=O)NS(=O)(=O)N4CCC5(CC4)COC5)CC[C@@H]23)[C@@]2(C)CC[C@@H](O)C[C@@H]12 [Example 74],242,6.00 to 7.00
CC[C@H]1[C@@H](O)[C@@H]2[C@H](CC[C@]3(C)[C@@H]([C@H](C)CCNC(=O)NS(=O)(=O)N4C[C@@H](C)O[C@@H](C)C4)CC[C@@H]23)[C@@]2(C)CC[C@@H](O)C[C@@H]12 [Example 75],323,> 7.00
